The values below come from patent US20060122099A1, “Method for infusing insulin to a subject to improve impaired total body tissue glucose processing” (priority 2004, published 2006).

What is called half-life is how long it takes for the measured level to halve.

Data set [1] in a line: Circulating glucose by finger stick during insulin pulse treatments. The data set is classed as in vivo, human. As to conditions: during the first treatment, with ingested carbohydrates; all examples. The text has this:
In prototype testing, a commercially available LIFESCAN ONETOUCH ULTRA glucose meter was used to measure the subject's baseline and subsequent circulating blood glucose level. The glucose meter was calibrated according to the manufacturer's recommendations. A blood sampler test strip was then inserted into the blood glucose meter as directed by the manufacturer. The glucose meter automatically turned on upon proper insertion of the test strip into the meter. This commercially available glucose meter utilized a lancet to prick the subject's fingertip or arm. After pricking the skin, the user gently massages the area to help form a round drop of blood (about one micro-liter in volume) on the skin surface. The subject then caused the blood sample to be absorbed onto the blood sampler test strip per the manufacturer's recommended procedure. If adequate blood was absorbed by the blood sampler test strip, the blood glucose level was automatically calculated and shown on the instrument's display panel in approximately 5 seconds. […]
For all of the above listed examples, after the initial few days of treatment, the patients underwent treatment once a week, each treatment day consisting of three infusions of insulin accompanied by ingestion of carbohydrates. […] The patients' circulating glucose were measured once every thirty minutes by the finger stick method currently used by most diabetic patients. […]

For data set [2] the following is noted: stated without source; cited from earlier work.

In the case of insulin, the “rise in circulating glucose levels” value in data set [1] was 100 to 150 mg/dL. Also, the half-life in data set [2] was 5 min.
